How the values were obtained:
[1] = system: dextran sulfate-induced inflammatory intestinal disease model mice; test: Action in dextran sulfate-induced inflammatory intestinal disease model mice; type: in vivo, mouse; details: 7% DSS drinking water 10 days; 0.1-100 mg/kg every day for 10 days
From the text: Action in Dextran Sulfate-Induced Inflammatory Intestinal Disease Model Mice
8-Week old female C57BL/6J mice were allowed to take 7% dextran sulfate (henceforth abbreviated as “DSS”) solution as drinking water ad libitum for 10 days to prepare inflammatory intestinal disease model. From the start of DSS intake, Example Compound Nos. IAH-H001a, IAH-H010 and IAH-H057 each dissolved in a suitable solvent (20 to 50% PEG 400 or 15% cyclodextrin) in the same manner as in Formulation Example 1 were given at appropriate doses (0.1 mg/kg, 1 mg/kg, 10 mg/kg, or 100 mg/kg) every day for 10 days (henceforth referred to as “medicament-treated groups”). Further, the solvent used for dissolving the compounds of the present invention was solely given to the mice made to take DSS (henceforth referred to as “solvent group”), and the solvent used for dissolving the compounds of the present invention was solely given every day to the mice allowed to take distilled water not containing DSS as drinking water ad libitum (henceforth referred to as “normal group”). The number of mice in each group was 10. After the start of intake of drinking water, body weight and clinical score were measured every other day. […] The mice were sacrificed 10 days after the start of intake of DSS containing water, and weights of the intestinal tracts of the large intestines were measured.

[2] = target: T1, human EP1 receptor (Homo sapiens, UniProt P34995); test: [3H]PGE2 receptor binding test, human EP1 receptor expressing HEK293 membrane fraction; details: [3H]PGE2 1 nM
T1 construct: expressed in transfected cells
T1 sequence (P34995 1-402): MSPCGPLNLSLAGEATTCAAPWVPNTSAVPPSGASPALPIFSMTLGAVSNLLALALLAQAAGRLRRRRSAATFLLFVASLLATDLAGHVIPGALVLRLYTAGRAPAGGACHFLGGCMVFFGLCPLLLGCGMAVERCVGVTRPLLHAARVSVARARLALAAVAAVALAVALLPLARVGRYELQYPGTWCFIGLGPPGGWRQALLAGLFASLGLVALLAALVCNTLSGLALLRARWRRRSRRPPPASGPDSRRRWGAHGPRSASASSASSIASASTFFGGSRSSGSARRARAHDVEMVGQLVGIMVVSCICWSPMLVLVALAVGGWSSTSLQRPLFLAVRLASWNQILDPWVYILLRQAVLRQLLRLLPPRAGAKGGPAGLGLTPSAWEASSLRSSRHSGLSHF
Protocol: (§1) Receptor Binding Test by Using Human EP Receptor Expressing Cells
(§2) In order to evaluate the selectivity for each EP receptor subtype, which is considered to greatly influence on the side reaction of drugs, [^3H]PGE2 binding inhibitory activities of test compounds were measured in HEK293 in which human EP1, human EP2, human EP3, or human EP4 receptor was stably expressed.
(§3) As a result of searching for prostaglandin E receptors using Refseq Database, the gene information of human EP1 (NM_000955), human EP2 (NM_000956), human EP3 (NM_198719), and human EP4 (NM_000958) was obtained. […] After the reaction, the reaction mixture was subjected to suction filtration under reduced pressure so that [^3H]PGE2 binding to the membrane fraction was trapped on Unifilter Plate GF/C (produced by Packard), and binding radioactivity was measured by using a liquid scintillator.
(§4) The Kd value was obtained by Scatchard plot. […] The [^3H]PGE2 binding inhibitory activity of a test compound was measured by adding [^3H]PGE2 (1 nM) and a test compound at various concentrations. […]
(§5) Further, HEK293 in which each of human EP1, human EP2, and human EP3 receptors was stably expressed was established, and a membrane fraction was prepared. […] The ratios of Ki value for human EP4 to Ki values for human EP1, human EP2, and human EP3 were calculated. […]

[3] = system: crab-eating monkeys; test: Intraocular pressure lowering action in crab-eating monkeys; type: in vivo, crab-eating monkey; details: 50 μl instilled, measured over 6 hours, 3 monkeys
Protocol: Intraocular Pressure Lowering Action
Male crab-eating monkeys with a body weight of 5 to 7.5 kg (5- to 10-year old) were used for the experiment. Example Compound Nos. IAH-H001a, IAH-H010, and IAH-H057 were each dissolved at various concentrations in water or physiological saline containing sodium hydroxide in an amount of the same equivalence as each compound. The intraocular pressure was measured immediately before a treatment with a test compound, then 50 μl of a solution containing each test compound was instilled, and the intraocular pressure was measured over time for 6 hours after the instillation. The intraocular pressure was measured under ketamine (5 to 10 mg/kg, intramuscular injection) anesthetization by using a pneumatic applanation tonometer. Each test compound was used in 3 monkeys, and the intraocular pressures before and after the instillation were compared.

[4] = target: T2, human EP2 receptor (Homo sapiens, UniProt P43116); test: [3H]PGE2 receptor binding test, human EP2 receptor expressing HEK293 membrane fraction; details: [3H]PGE2 1 nM
T2 construct: expressed in transfected cells
Protocol: as §1, §2, §3, §4, §5

[5] = target: T3, human EP3 receptor (Homo sapiens, UniProt P43115); test: [3H]PGE2 receptor binding test, human EP3 receptor expressing HEK293 membrane fraction; details: [3H]PGE2 1 nM
T3 construct: expressed in transfected cells
T3 sequence (P43115 1-390): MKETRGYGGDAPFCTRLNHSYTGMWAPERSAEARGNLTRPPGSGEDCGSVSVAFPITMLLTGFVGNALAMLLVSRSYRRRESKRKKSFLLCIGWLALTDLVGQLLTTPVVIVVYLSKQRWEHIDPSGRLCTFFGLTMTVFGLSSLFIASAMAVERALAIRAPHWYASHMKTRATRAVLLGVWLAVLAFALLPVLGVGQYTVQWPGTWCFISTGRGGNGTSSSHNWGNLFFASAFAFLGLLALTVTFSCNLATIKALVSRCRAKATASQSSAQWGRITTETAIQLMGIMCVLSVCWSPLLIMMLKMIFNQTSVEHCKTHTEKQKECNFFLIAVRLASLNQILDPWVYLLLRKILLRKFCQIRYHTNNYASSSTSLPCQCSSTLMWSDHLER
Protocol: as §1, §2, §3, §4, §5

T2 sequence (P43116 whole entry): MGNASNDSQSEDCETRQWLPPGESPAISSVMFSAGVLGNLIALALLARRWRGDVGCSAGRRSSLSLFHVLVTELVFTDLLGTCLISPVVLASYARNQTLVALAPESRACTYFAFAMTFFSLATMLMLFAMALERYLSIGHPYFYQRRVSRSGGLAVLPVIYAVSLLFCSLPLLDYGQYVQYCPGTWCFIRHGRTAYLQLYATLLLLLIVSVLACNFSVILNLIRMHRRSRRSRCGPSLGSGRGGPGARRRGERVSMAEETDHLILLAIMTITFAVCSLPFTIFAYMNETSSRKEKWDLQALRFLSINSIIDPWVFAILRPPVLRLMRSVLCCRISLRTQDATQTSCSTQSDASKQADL

With O=C(O)c1ccc(CCN2C(=O)CCCN2CCC(O)Cc2cccc(C(F)(F)F)c2)cc1 (stereo not drawn) [IAH-H001a, 4-[2-(2-{3-hydroxy-4-[3-(trifluoromethyl)-phenyl]butyl}-6-oxotetrahydropyridazin-1-yl)ethyl]benzoic acid] the “diarrhea score and bloody stool score compared with the solvent group” value [1] was “significantly improved and suppressed”, the “reduction of the large intestine weight compared with the solvent group” value [1] was “significantly suppressed” and the “ratio of Ki values human EP1/human EP4” value [2] was no less than 80000. The “intraocular pressure after instillation compared with before instillation” value [3] was “significant intraocular pressure lowering action”, the “ratio of Ki values human EP2/human EP4” value [4] was 15000 and the “ratio of Ki values human EP3/human EP4” value [5] was no less than 45000.

Reference: US7531533B2, “6-Membered heterocyclic compound and use thereof” (Asahi Kasei Pharma Corporation, priority 2005, dated 2009)
